{"source": "patent US20050049299A1", "about": "“Selective inhibitors of stat-3 activation and uses thereof” (priority 2003, published 2005)", "key": {"[1]": {"system": "STAT3 phosphorylation", "assay": "Constitutive STAT3 phosphorylation in MDA 1986LN cells (Western blot)", "type": "cell-based, human", "procedure": "TU167, MDA 1986LN, TU 686, MDA 686LN and JMAR cells (2×10^6 cells) were lysed and whole cell extracts (30 μg) were resolved on 7.5% SDS-PAGE, electrotransferred to a nitrocellulose membrane and probed for phosphorylated-STAT3 (p-STAT3) and total STAT3 proteins. […] MDA 1986LN cells (2×10^6 cells) were treated with curcumin (50 μM) for indicated durations or with indicated concentrations of curcumin for 1 h and levels of p-STAT3 (upper panels) and STAT3 (lower panels) were examined in whole cell extracts by Western blotting.\nMDA 1986LN cells (2×10^6 cells) were treated with curcumin (50 μM) for the indicated durations (upper panels) or treated for 1 h and washed twice with PBS to remove curcumin before re-suspending in fresh medium. Cells were removed at indicated times and lysed to prepare the whole cell extract (lower panels). The whole cell extracts (30 μg) were resolved on 7.5% SDS-PAGE, electrotransferred to a nitrocellulose membrane, probed for the p-STAT3 (upper panels) and striped and reprobed for STAT3 (lower panels).\nMDA 1986LN cells (2×10^6 cells) were treated with indicated concentrations of AG490 for 8 h and whole extracts prepared. These whole-cell extracts (30 μg) were resolved on 7.5% SDS-PAGE, electrotransferred to a nitrocellulose membrane, probed for p-STAT3 (upper panel), striped and reprobed for STAT3 (middle panel) and β-actin (lower panel). […] The cells were treated with AG490 (100 μM) for the indicated durations and whole cell extracts prepared and analyzed as mentioned earlier. FIG. 15C compares the effect of curcumin and AG490 on proliferation of MDA 1986LN cells by MTT assay.\nSince STAT3 was constitutively phosphorylated in MDA 1986LN cells, the ability of curcumin to inhibit the constitutive STAT3 phosphorylation was examined. MDA 1986LN cells were treated either with curcumin (50 μM) for different durations or with different concentrations of curcumin for 1 h and the p-STAT3 levels and STAT3 levels were determined. Curcumin inhibited the constitutively active STAT3 in a time-(FIG. 11B) and a dose-(FIG. 11C) manner. This curcumin-induced inhibition could be observed as early as 30 min and with a concentration as low as 25 μM.\nMDA 1986LN cells were treated with curcumin for indicated times or for 1 h and the cells were washed twice with PBS to remove curcumin. The cells were then cultured in media for various durations and the levels of phosphorylated STAT3 were determined. […] However, the STAT3 levels were unaffected by curcumin treatment.\nThe concentration and the exposure time for AG490 to inhibit STAT3 phosphorylation in MDA 1986LN cells were determined. These cells were incubated with either different concentrations of AG490 or with 100 μM of AG490 for different durations and the levels of p-STAT3 and STAT3 were assessed."}, "[2]": {"system": "STAT3 nuclear translocation", "assay": "STAT3 distribution in HNSCC cells (immunocytochemistry, Alexa fluorochrome)", "type": "cell-based, human", "conditions": "MDA 1986LN, MDA 686LN and JMAR cells, 50 μM, 2 hrs", "procedure": "MDA 1986LN, MDA 686LN and JMAR cells were incubated with either media alone or with curcumin (50 μM) for 2 hrs and then analyzed by immunocytochemistry using Alexa fluorochrome for the distribution of STAT3 (original magnification ×200). […] The same procedure as mentioned above was performed on the same cells and the p-STAT3 analyzed by immunocytochemistry using horse radish peroxidase stain (original magnification ×200).\nSince STAT3 retained in the cytoplasm under resting conditions and in the non-phosphorylated state translocates to nucleus when phosphorylated, the effect of curcumin on the distribution of STAT3 was examined. To accomplish this, curcumin-treated and untreated MDA 1986LN, MDA 686LN and JMAR cells were analyzed for distribution of STAT3 by immunocytochemistry using ALEXA fluorochrome."}}, "note": "Entries after “also recorded” stand apart in the source; their conditions may differ.", "data": [{"compound": "COc1cc(/C=C/C(=O)CC(=O)/C=C/c2ccc(O)c(OC)c2)ccc1O", "note": "[curcumin, diferuloylmethane]", "values": [{"measurement": "reversibility of inhibition of STAT3 phosphorylation", "setting": "[1]; 50 μM 1 h then washed", "value": "removal of curcumin resulted in gradual increase in phosphorylated STAT3"}, {"measurement": "earliest time at which inhibition of constitutive STAT3 phosphorylation could be observed", "setting": "[1]; 50 μM curcumin", "value": 30, "unit": "min"}, {"measurement": "lowest concentration at which inhibition of constitutive STAT3 phosphorylation could be observed", "setting": "[1]; 1 h", "value": 25, "unit": "µM"}, {"measurement": "inhibition of constitutive STAT3 phosphorylation", "setting": "[1]; curcumin 50 μM, 1 h", "value": "inhibited the STAT3 phosphorylation completely; also recorded: completely inhibit"}, {"measurement": "overall expression / levels of STAT3 protein", "setting": "[1]; curcumin treatment", "value": "did not alter the overall expression of STAT3 protein; also recorded: unaffected"}, {"measurement": "translocation of STAT3 to the nucleus", "setting": "[2]", "value": "prevented the translocation of STAT3 to the nucleus"}]}]}
